{"source": "patent US10202395B2", "about": "“Macrocycle with repeating triazole-carbazole units” (INDIANA UNIVERSITY RESEARCH & TECHNOLOGY CORPORATION, priority 2015, dated 2019)", "key": {"[1]": {"assay": "Anion binding constants by UV-Vis titration, I^−", "conditions": "20% MeOH/CHCl3; for K2/K1: I^−, positive cooperativity", "procedure": "(§1) FIG. 2B depicts an exemplary plot of anion binding constants obtained from equilibrium restricted factor analysis (D. A. Griend, D. K. Bediako, M. J. DeVries, N. A. DeJong, L. P. Heeringa, Inorg Chem 2008, 47, 656-662) of UV-Vis titration data (20% MeOH/CHCl3). Salts added as TBA^+ with exception of FeCl4^− added as the 1-ethyl-3-methylimidazolium salt.\n(§2) The tricarb-anion stability constants were determined from UV-Vis titrations and evaluated using equilibrium restricted factor analysis (D. A. Griend, D. K. Bediako, M. J. DeVries, N. A. DeJong, L. P. Heeringa, Inorg Chem 2008, 47, 656-662) as implemented with Sivvu by employing the following equilibria: tricarb+X^− ? tricarb·X^−K1 (1) tricarb·X^−+tricarb ? tricarb2·X^−K2 (2) 2 tricarb+X^− ? tricarb2·X^−β2 (3)"}, "[2]": {"assay": "Anion binding constants by UV-Vis titration, ClO4^−", "conditions": "20% MeOH/CHCl3; for logβ2: 2:1 sandwich; for K2/K1: ClO4^−, positive cooperativity", "procedure": "as §1, §2"}, "[3]": {"assay": "Anion binding constants by UV-Vis titration, ReO4^−", "conditions": "20% MeOH/CHCl3; for K2/K1: ReO4^−, positive cooperativity", "procedure": "as §1, §2"}, "[4]": {"assay": "Anion binding constants by UV-Vis titration, PF6^−", "conditions": "20% MeOH/CHCl3; for logβ2: 2:1 sandwich; for K2/K1: PF6^−, positive cooperativity", "procedure": "as §1, §2"}, "[5]": {"assay": "Anion binding constants by UV-Vis titration, SbF6^−", "conditions": "20% MeOH/CHCl3; for logβ2: 2:1 sandwich; for K2/K1: SbF6^−, positive cooperativity", "procedure": "as §1, §2"}, "[6]": {"assay": "Anion binding constants by UV-Vis titration, FeCl4^−", "conditions": "20% MeOH/CHCl3; for K2/K1: FeCl4^−, positive cooperativity", "procedure": "as §1, §2"}, "[7]": {"assay": "Solution phase self-association, variable concentration UV-Vis, isodesmic equal-K model", "assay_type": "physicochemical", "description": "Solution phase self-association was examined using variable concentration ^1H NMR and UV-Vis spectra. All aromatic ^1H NMR peaks shift upfield (FIG. 3B) with concentration (10×10^−6 M−2×10^−3 M) consistent with p stacking (R. B. Martin, Chem. Rev. 1996, 96, 3043-3064). UV-Vis spectroscopy was used to quantify the extent of self-association (S. A. Jenekhe, L. Lu, M. M. Alam, Macromolecules 2001, 34, 7315-7324) (0.7 to 24×10^−6 M, FIG. 3C). An isodesmic equal-K model (R. B. Martin, Chem. Rev. 1996, 96, 3043-3064) was used to quantify self-association (KE) to give KE=300,000±10,000 M^−1 in 20% MeOH/CHCl3 (ε=10.4). The self-association is high relative to other macrocycles (W. Zhang, J. S. Moore, Angew. Chem. Int. Ed. 2006, 45, 4416-4439) and believed to be driven by solvophobic effects and dipolar coupling. Consistent with dipolar coupling, use of pure CHCl3 with a lower polarity (ε=4.8), increases KE to 790,000±30,000 M^−1 (S.-L. Lee, Z. Yuan, L. Chen, K. S. Mali, K. Müllen, S. De Feyter, J Am. Chem. Soc. 2014, 136, 4117-4120; S.-L. Lee, Z. Yuan, L. Chen, K. S. Mali, K. Müllen, S. De Feyter, J. Am. Chem. Soc. 2014; P. Samori, N. Severin, C. D. Simpson, K. Müllen, J. P. Rabe, J. Am. Chem. Soc. 2002, 124, 9454-9457)."}, "[8]": {"assay": "Cyclic voltammetry in solution", "assay_type": "physicochemical", "conditions": "1×10^−3 M, 0.1 M tetrabutylammonium hexafluorophosphate, glassy carbon working electrode, chloroform, room temperature", "description": "FIG. 7 depicts a representative current-voltage response curve recorded using cyclic voltammetry of tricarb of Formula (IB) in solution. […] Conditions: [tricarb of Formula (IB)]=1×10^−3 M, 0.1 M tetrabutylammonium hexafluorophosphate, glassy carbon working electrode, platinum counter electrode, chloroform, room temperature, Ar degassed."}, "[9]": {"conditions": "listed as tricarb of Formula (I)"}, "[10]": {"conditions": "ClO4^− as tetrabutylammonium salt"}, "[11]": {"conditions": "ReO4^− as tetrabutylammonium salt"}, "[12]": {"conditions": "PF6^− as tetrabutylammonium salt"}, "[13]": {"conditions": "SbF6^− as tetrabutylammonium salt"}, "[14]": {"conditions": "FeCl4^− as 1-ethyl-3-methylimidazolium salt"}}, "note": "Several values for one entry are separate records, joined by “and”; a condition that tells them apart may be missing. Equal values may be shown once."}
{"smiles": "CCCCCCCCCCn1c2ccc3cc2c2cc(ccc21)n1cc(nn1)c1ccc2c(c1)c1cc(ccc1n2CCCCCCCCCC)n1cc(nn1)c1ccc2c(c1)c1cc(ccc1n2CCCCCCCCCC)n1cc3nn1", "note": "[tricarb of Formula (IB), tridecyl-tricarbazolo-triazolophane]", "values": [{"measurement": "logβ2", "setting": "[1]; I^− as tetrabutylammonium salt, 2:1 sandwich", "value": "9.3 ± 0.3"}, {"measurement": "logK1", "setting": "[1]; I^− as tetrabutylammonium salt, tricarb+X^− = tricarb·X^−", "value": "4.3 ± 0.1"}, {"measurement": "logK2", "setting": "[1]; I^− as tetrabutylammonium salt, tricarb·X^−+tricarb = tricarb2·X^−", "value": "5.1 ± 0.2"}, {"measurement": "K2/K1", "setting": "[1]; listed as tricarb", "value": "6 ± 3"}, {"measurement": "K2/K1", "setting": "[1]; [9]", "value": "~5"}, {"measurement": "logK1", "setting": "[2]; [10]", "value": "4.04 ± 0.01"}, {"measurement": "logK2", "setting": "[2]; [10]", "value": "5.87 ± 0.01"}, {"measurement": "logβ2", "setting": "[2]; ClO4^− as tetrabutylammonium salt, listed as Tricarb of Formula (IB)", "value": 10}, {"measurement": "logβ2", "setting": "[2]; ClO4^− as tetrabutylammonium salt, listed as tricarb", "value": "10.04 ± 0.02"}, {"measurement": "K2/K1", "setting": "[2]; listed as tricarb", "value": "67 ± 3"}, {"measurement": "K2/K1", "setting": "[2]; [9]", "value": "~70"}, {"measurement": "logK1", "setting": "[3]; [11]", "value": "3.8 ± 0.1"}, {"measurement": "logK2", "setting": "[3]; [11]", "value": "6.2 ± 0.1"}, {"measurement": "logβ2", "setting": "[3]; ReO4^− as tetrabutylammonium salt, 2:1 sandwich", "value": "10.0 ± 0.2"}, {"measurement": "K2/K1", "setting": "[3]; listed as tricarb", "value": "200 ± 100"}, {"measurement": "K2/K1", "setting": "[3]; [9]", "value": 200}, {"measurement": "logK1", "setting": "[4]; [12]", "value": "4.46 ± 0.01"}, {"measurement": "logK2", "setting": "[4]; [12]", "value": "6.94 ± 0.01"}, {"measurement": "logβ2", "setting": "[4]; PF6^− as tetrabutylammonium salt, listed as Tricarb of Formula (IB)", "value": 11.4}, {"measurement": "logβ2", "setting": "[4]; PF6^− as tetrabutylammonium salt, listed as tricarb", "value": "11.40 ± 0.02"}, {"measurement": "K2/K1", "setting": "[4]; listed as tricarb", "value": "300 ± 60"}, {"measurement": "K2/K1", "setting": "[4]; [9]", "value": 300}, {"measurement": "logK1", "setting": "[5]; [13]", "value": "5.2 ± 0.2"}, {"measurement": "logK2", "setting": "[5]; [13]", "value": "6.4 ± 0.2"}, {"measurement": "logβ2", "setting": "[5]; SbF6^− as tetrabutylammonium salt, listed as Tricarb of Formula (IB)", "value": 11.6}, {"measurement": "logβ2", "setting": "[5]; SbF6^− as tetrabutylammonium salt, listed as tricarb", "value": "11.6 ± 0.4"}, {"measurement": "K2/K1", "setting": "[5]; listed as tricarb", "value": "30 ± 20"}, {"measurement": "K2/K1", "setting": "[5]; [9]", "value": "~30"}, {"measurement": "logK1", "setting": "[6]; [14]", "value": "4.0 ± 0.1"}, {"measurement": "logK2", "setting": "[6]; [14]", "value": "3.7 ± 0.2"}, {"measurement": "logβ2", "setting": "[6]; FeCl4^− as 1-ethyl-3-methylimidazolium salt, 2:1 sandwich", "value": "7.7 ± 0.3"}, {"measurement": "K2/K1", "setting": "[6]; listed as tricarb", "value": "5.2 ± 0.2"}, {"measurement": "K2/K1", "setting": "[6]; [9]", "value": "~5"}, {"measurement": "self-association (KE)", "setting": "[7]; 20% MeOH/CHCl3 (ε=10.4), 0.7 to 24×10^−6 M", "value": "300,000±10,000 M^−1"}, {"measurement": "self-association (KE)", "setting": "[7]; pure CHCl3 (ε=4.8)", "value": "790,000±30,000 M^−1"}, {"measurement": "half-wave oxidation potential E1/2", "setting": "[8]", "value": 0.8, "unit": "V vs Ag/AgCl"}, {"measurement": "peak potentials", "setting": "[8]", "value": "0.95 V and 0.65 V"}]}
